According to patent US8580545B2, “Biodegradable linkers for molecular therapies” (The Children's Hospital of Philadelphia, priority 2004, dated 2013):

Test: Hydrolysis of the ester bond of the cross-linker (model experiments)
Conditions: 37° C.

Structure (SMILES)	t1/2 of the ester bond hydrolysis
O=C(CCCCC(=O)ON1C(=O)CC(S(=O)(=O)[O-])C1=O)NCC(=O)OCCSSc1ccccn1.[Na+] (centres unmarked) [cross-linker 2]	several days
O=C(CCSSc1ccccn1)NCCCOC(=O)CCCCC(=O)ON1C(=O)CC(S(=O)(=O)[O-])C1=O.[Na+] (centres unmarked) [cross-linker 1]	several weeks
